One data set addresses Acetylcholinesterase (Electrophorus electricus, UniProt O42275). Put plainly: Inhibition of Electrophorus electricus AChE using acetylthiocholine iodide as substrate measured after 15 mins by Ellman's method. In general terms: In Ellman's method for cholinesterases, released thiocholine reacts with DTNB.
The target of data set [1] is Butyrylcholinesterase (Rattus norvegicus) (UniProt Q9JKC1). Put plainly: Inhibition of rat serum BuChE at 50 uM measured after 15 mins by Ellman's method relative to control.
Data set [2] can be described thus: Antioxidant activity assessed as trolox equivalent of […]-induced radical scavenging activity preincubated for 15 mins followed by AAPH addition measured every minute for 120 mins by ORAC fluorescein assay. The format is functional.
Data set [3] concerns the target Acetylcholinesterase (Electrophorus electricus) (UniProt O42275). Put plainly: Mixed-type inhibition of […] AChE preincubated for 15 mins followed by addition of acetylthiocholine iodide as substrate in varying concentrations by Lineweaver-Burk reciprocal plot analysis.
Data set [4] has as its target Amyloid-beta precursor protein (Homo sapiens) (UniProt P05067). Put plainly: Inhibition of self-mediated aggregation of amyloid beta (1 to 42 residues) (unknown origin) at 25 uM incubated for 24 hrs by Thioflavin T fluorescence assay relative to control.
A short description of data set [5]: Inhibition of copper-mediated aggregation of amyloid beta (1 to 42 residues) (unknown origin) at 25 uM incubated for 24 hrs by thioflavin-T fluorescence assay relative to control. The format is physicochemical.
Data set [6] addresses T1, Amine oxidase [flavin-containing] A (Homo sapiens, UniProt P21397).
T1 sequence (P21397 whole entry): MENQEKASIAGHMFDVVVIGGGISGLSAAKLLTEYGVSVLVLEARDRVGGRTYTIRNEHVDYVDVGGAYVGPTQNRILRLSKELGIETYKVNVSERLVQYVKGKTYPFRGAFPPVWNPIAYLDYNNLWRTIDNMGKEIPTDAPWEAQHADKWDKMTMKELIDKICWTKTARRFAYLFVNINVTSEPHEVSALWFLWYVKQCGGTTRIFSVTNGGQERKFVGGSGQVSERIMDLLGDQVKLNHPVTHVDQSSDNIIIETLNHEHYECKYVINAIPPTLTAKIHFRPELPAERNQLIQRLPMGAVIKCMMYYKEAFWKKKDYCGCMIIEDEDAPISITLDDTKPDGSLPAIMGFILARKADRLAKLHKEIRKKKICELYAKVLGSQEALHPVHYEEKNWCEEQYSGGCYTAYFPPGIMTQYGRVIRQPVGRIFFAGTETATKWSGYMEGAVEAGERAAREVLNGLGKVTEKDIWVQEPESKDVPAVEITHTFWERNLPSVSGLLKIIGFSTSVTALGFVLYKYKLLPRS
Put plainly: Inhibition of human recombinant MAO-A using kynuramine as substrate at 20 uM measured after 30 mins by fluorescence assay relative to control. The following applies: 0.5 h.

Data set [7] concerns the target T2, Amine oxidase [flavin-containing] B (Homo sapiens, UniProt P27338).
T2 sequence (P27338 whole entry): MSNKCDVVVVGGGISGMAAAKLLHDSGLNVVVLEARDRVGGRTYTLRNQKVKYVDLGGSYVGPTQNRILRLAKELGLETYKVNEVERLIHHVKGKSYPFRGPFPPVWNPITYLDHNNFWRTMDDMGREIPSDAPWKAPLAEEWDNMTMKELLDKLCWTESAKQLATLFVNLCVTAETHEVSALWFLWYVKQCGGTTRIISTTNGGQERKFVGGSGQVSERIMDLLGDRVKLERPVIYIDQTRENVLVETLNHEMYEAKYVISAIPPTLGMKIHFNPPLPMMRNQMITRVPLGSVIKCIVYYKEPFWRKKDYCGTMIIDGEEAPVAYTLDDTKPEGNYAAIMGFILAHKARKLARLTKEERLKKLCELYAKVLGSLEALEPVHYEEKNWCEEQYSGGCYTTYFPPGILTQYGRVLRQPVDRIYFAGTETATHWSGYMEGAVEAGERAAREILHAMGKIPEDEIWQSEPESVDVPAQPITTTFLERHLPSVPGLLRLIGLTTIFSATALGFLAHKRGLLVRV
Description: Inhibition of human recombinant MAO-B using kynuramine as substrate measured after 30 mins by fluorescence assay

For a further data set, the species on record is Homo sapiens. The data set can be described thus: Selectivity index, ratio of IC50 for human recombinant MAO-A to IC50 for human recombinant MAO-B.
Data set [8] in a line: Metal chelating activity assessed as iron-compound complex formation at 37.5 uM in presence of FeSO4 measured after 30 mins by UV-vis spectrometry. The format is physicochemical. Particulars: 0.5 h.
The nature of data set [9]: Metal chelating activity assessed as aluminium-compound complex formation at 37.5 uM in presence of AlCl3 measured after 30 mins by UV-vis spectrometry. The format is physicochemical. Particulars: 0.5 h.
Data set [10] in a line: Metal chelating activity assessed as copper-compound complex formation at 37.5 uM in presence of CuCl2 measured after 30 mins by UV-vis spectrometry. The format is physicochemical. The following applies: 0.5 h.
Another data set is filed under the species Rattus norvegicus. Put plainly: Cytotoxicity against rat PC12 cells assessed as effect on cell viability at 1 to 10 uM measured after 48 hrs by MTT assay. Particulars: pc-12, 48 h. The format is toxicity, cell-based. Background: Tetrazolium dyes change colour on reduction, which living cells bring about.
The nature of data set [11]: Cytotoxicity against rat PC12 cells assessed as cell viability at 100 uM measured after 48 hrs by MTT assay relative to control. The format is toxicity, PC-12. Particulars: read-out: Activity.
The nature of data set [12]: Permeability of the compound at 100 ug/ml after 18 hrs by PAMPA assay. The format is ADME. The following applies: read-out: permeability. For orientation: PAMPA measures passive passage across an artificial lipid membrane.

Structures are written as SMILES. pIC50: −log10 of the molar value. Activity calls are given as the source filed them. The calls are words filed in the database; no cut-off is given here.

Chain of Amyloid-beta precursor protein (Homo sapiens) (P05067 whole entry, the tested form may be a part): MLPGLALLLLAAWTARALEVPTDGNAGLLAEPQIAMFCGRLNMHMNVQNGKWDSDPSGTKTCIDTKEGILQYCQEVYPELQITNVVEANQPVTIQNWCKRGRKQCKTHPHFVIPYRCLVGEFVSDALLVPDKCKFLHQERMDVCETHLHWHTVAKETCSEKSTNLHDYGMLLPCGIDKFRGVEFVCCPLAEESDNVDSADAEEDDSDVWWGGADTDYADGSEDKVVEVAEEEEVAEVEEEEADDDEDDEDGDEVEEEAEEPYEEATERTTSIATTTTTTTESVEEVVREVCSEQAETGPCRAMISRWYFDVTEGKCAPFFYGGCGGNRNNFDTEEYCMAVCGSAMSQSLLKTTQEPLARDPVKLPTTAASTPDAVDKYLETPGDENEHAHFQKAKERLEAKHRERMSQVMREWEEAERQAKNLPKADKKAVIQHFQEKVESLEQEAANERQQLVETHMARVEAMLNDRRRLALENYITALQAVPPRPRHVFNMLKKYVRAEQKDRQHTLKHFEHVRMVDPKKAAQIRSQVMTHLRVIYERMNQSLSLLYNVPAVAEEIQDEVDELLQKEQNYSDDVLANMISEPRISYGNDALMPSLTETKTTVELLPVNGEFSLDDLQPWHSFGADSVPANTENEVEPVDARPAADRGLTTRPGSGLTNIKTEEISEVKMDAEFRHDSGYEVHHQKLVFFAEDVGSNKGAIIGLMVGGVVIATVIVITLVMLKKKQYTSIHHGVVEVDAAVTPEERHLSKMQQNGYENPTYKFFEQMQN
Chain of Acetylcholinesterase (O42275 whole entry): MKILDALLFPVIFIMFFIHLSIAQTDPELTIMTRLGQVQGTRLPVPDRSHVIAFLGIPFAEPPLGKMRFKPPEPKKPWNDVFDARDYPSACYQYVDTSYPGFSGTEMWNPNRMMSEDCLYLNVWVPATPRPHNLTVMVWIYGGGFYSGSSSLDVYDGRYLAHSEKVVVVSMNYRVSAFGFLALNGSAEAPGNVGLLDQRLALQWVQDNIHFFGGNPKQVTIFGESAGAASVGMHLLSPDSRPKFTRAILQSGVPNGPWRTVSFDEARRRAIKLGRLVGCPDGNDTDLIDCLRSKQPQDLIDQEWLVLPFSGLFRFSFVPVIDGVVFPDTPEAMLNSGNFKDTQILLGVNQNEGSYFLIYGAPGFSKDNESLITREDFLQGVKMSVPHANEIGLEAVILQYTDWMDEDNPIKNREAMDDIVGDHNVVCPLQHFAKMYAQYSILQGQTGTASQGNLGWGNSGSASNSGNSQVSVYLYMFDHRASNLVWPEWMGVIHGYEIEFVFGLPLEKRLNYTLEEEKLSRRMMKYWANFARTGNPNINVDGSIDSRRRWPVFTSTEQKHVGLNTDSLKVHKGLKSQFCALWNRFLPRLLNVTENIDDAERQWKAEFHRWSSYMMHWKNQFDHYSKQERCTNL
Chain of Acetylcholinesterase (Electrophorus electricus) (O42275 24-633 limits assumed): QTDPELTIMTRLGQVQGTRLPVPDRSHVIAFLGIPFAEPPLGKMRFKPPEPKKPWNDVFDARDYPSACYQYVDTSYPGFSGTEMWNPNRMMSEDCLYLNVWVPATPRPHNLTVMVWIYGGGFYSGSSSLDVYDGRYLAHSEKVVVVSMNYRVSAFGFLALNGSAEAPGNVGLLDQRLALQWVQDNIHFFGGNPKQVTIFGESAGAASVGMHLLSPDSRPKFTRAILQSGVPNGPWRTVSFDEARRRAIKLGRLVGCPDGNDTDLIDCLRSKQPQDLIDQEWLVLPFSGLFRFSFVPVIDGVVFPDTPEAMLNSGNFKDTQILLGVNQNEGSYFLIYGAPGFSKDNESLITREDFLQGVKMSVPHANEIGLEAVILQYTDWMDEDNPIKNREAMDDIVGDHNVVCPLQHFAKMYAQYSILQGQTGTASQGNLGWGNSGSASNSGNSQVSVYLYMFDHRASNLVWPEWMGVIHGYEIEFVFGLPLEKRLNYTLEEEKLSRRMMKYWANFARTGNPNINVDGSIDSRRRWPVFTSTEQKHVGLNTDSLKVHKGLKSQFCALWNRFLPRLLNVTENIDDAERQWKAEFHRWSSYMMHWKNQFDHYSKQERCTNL
Chain of Butyrylcholinesterase (Rattus norvegicus) (Q9JKC1 as listed by the source): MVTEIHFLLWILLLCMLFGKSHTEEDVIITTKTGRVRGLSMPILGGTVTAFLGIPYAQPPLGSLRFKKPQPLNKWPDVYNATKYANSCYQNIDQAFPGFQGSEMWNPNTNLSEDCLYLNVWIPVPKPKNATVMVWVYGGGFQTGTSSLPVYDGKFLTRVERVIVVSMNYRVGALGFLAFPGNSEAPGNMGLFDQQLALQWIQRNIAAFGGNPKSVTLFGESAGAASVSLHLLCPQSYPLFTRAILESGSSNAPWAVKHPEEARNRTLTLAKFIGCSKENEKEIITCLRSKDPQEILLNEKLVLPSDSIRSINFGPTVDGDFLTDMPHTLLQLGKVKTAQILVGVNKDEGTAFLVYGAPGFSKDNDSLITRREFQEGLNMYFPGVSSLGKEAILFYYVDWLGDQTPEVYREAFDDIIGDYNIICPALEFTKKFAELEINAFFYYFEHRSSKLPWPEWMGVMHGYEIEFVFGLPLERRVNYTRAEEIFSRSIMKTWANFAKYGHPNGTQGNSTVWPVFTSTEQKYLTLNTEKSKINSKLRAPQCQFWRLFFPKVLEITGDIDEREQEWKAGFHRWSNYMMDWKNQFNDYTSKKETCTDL

Usually pIC50 stands for the IC50 on a negative log10 scale, so that one unit is a factor of ten. A lower pIC50 goes with a large IC50. As usually defined, the inhibition is the share of the control response that was lost under treatment. In the case of `COc1cc2c(cc1OC)C(=O)/C(=C/c1ccc(CN3CCCCC3)c(O)c1)CO2`, the pIC50 against Acetylcholinesterase was 8.60; in data set [7], 5.76. In addition, the inhibition in data set [1] stood at 19.8%; in data set [4] it was 39.3%; in [6], 24.6%. Moreover, the Activity was 2.25 equiv in [2]; “Active” in data set [8]; “Active” in data set [9]; “Active” in data set [10]; “Non-Toxic” in the data set listed under Rattus norvegicus. Moreover, the inhibition result in data set [3] is “Active”. The “inhibition (INH)” value in data set [5] is 47%. For the same molecule, the Ratio IC50 in the data set listed under Homo sapiens was above 11.5. Moreover, the viability at 48 h, 100 µM in [11] was found to be 63.4%. Besides, the Papp at 18 h, 100 ug/ml in data set [12] stood at 10.4 ×10⁻⁶ cm/s.

Values taken from ChEMBL document CHEMBL3872257, “Multitarget drug design strategy against Alzheimer's disease: Homoisoflavonoid Mannich base derivatives serve as acetylcholinesterase and monoamine oxidase B dual inhibitors with multifunctional properties” (Bioorg Med Chem, 2017).
